Laboratory results taken from patent publication US12599136B2, “Substituted isophthalic acid diamides and their use as herbicides” (Bayer Aktiengesellschaft, priority 2020, dated 2026).

Key:
Assay type in all cases: in vivo
[1] = tested on: Abutilon theophrasti; experiment: Post-emergence herbicidal action against ABUTH
In short: (§1)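 Greenhouse plants in sandy loam were sprayed at the one-leaf stage, 2 to 3 weeks after sowing, with WP or EC formulations as aqueous suspension or emulsion (600 to 800 l/ha water, 0.2% wetting agent). Visual damage was scored about 3 weeks later versus untreated controls, 0% = like control, 100% = dead.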

[2] = tested on: Echinochloa crus-galli; experiment: Pre-emergence herbicidal action against ECHCG; details: visual score after 3 weeks vs untreated controls
In short: (§2)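 Pre-emergence soil-surface spray of formulated compound (WP or EC; 600 to 800 l/ha; 0.2% wetting agent) over seeds sown in sandy loam. After 3 weeks under greenhouse conditions, damage is estimated visually in percent against untreated plants.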

[3] = tested on: Viola tricolor; experiment: Post-emergence herbicidal action against VIOTR; details: 80 g/ha
In short: as §1

[4] = tested on: Matricaria inodora; experiment: Pre-emergence herbicidal action against MATIN; details: visual score after 3 weeks vs untreated controls
In short: as §2

[5] = tested on: Polygonum convolvulus; experiment: Pre-emergence herbicidal action against POLCO
In short: as §2

[6] = tested on: Viola tricolor; experiment: Pre-emergence herbicidal action against VIOTR
In short: as §2

[7] = tested on: Alopecurus myosuroides; experiment: Pre-emergence herbicidal action against ALOMY; details: visual score after 3 weeks vs untreated controls
In short: as §2

[8] = tested on: Setaria viridis; experiment: Pre-emergence herbicidal action against SETVI; details: 320 g/ha
In short: as §2

[9] = tested on: Stellaria media; experiment: Pre-emergence herbicidal action against STEME
In short: as §2

[10] = tested on: Amaranthus retroflexus; experiment: Pre-emergence herbicidal action against AMARE; details: visual score after 3 weeks vs untreated controls
In short: as §2

[11] = tested on: Hordeum murinum; experiment: Pre-emergence herbicidal action against HORMU; details: 320 g/ha; visual score after 3 weeks vs untreated controls
Description: Seeds of monocotyledonous and dicotyledonous weed plants and crop plants are laid out in sandy loam soil in wood-fiber pots and covered with soil. The compounds of the invention, formulated in the form of wettable powders (WP) or as emulsion concentrates (EC), are then applied to the surface of the covering soil in the form of an aqueous suspension or emulsion at a water application rate equivalent to 600 to 800 l/ha, with addition of 0.2% wetting agent. After the treatment, the pots are placed in a greenhouse and kept under good growth conditions for the trial plants. The damage to the test plants is scored visually after a test period of 3 weeks by comparison with untreated controls (herbicidal activity in percent (%): 100% activity=the plants have died, 0% activity=like control plants). […] The tables below illustrate, in an illustrative manner, the post-emergence herbicidal action of the compounds of the invention, the herbicidal activity being stated in percent.

[12] = tested on: Echinochloa crus-galli; experiment: Post-emergence herbicidal action against ECHCG; details: visual assessment about 3 weeks after treatment
In short: as §1

[13] = tested on: Polygonum convolvulus; experiment: Post-emergence herbicidal action against POLCO; details: visual assessment about 3 weeks after treatment
Description: (§3) Seeds of monocotyledonous and dicotyledonous weed and crop plants are laid out in sandy loam soil in wood-fiber pots, covered with soil and cultivated in a greenhouse under good growth conditions. 2 to 3 weeks after sowing, the test plants are treated at the one-leaf stage. The compounds of the invention, formulated in the form of wettable powders (WP) or as emulsion concentrates (EC), are then sprayed onto the green parts of the plants in the form of an aqueous suspension or emulsion at a water application rate equivalent to 600 to 800 l/ha, with addition of 0.2% wetting agent. After the test plants have been left to stand in the greenhouse under optimal growth conditions for about 3 weeks, the action of the preparations is assessed visually in comparison to untreated controls (herbicidal action in percent (%): 100% activity=the plants have died, 0% activity=like control plants). […] The tables below illustrate, in an illustrative manner, the post-emergence herbicidal action of the compounds of the invention, the herbicidal activity being stated in percent.

[14] = tested on: Amaranthus retroflexus; experiment: Post-emergence herbicidal action against AMARE; details: visual assessment about 3 weeks after treatment
In short: as §1

[15] = tested on: Veronica persica; experiment: Pre-emergence herbicidal action against VERPE; details: 320 g/ha
In short: as §2

[16] = tested on: Avena fatua; experiment: Pre-emergence herbicidal action against AVEFA; details: 320 g/ha; visual score after 3 weeks vs untreated controls
In short: as §2

[17] = tested on: Pharbitis purpurea; experiment: Post-emergence herbicidal action against PHBPU; details: visual assessment about 3 weeks after treatment
In short: as §1

[18] = tested on: Stellaria media; experiment: Post-emergence herbicidal action against STEME; details: visual assessment about 3 weeks after treatment
In short: as §1

[19] = tested on: Abutilon theophrasti; experiment: Pre-emergence herbicidal action against ABUTH; details: visual score after 3 weeks vs untreated controls
In short: as §2

[20] = tested on: Pharbitis purpurea; experiment: Pre-emergence herbicidal action against PHBPU; details: 320 g/ha; visual score after 3 weeks vs untreated controls
In short: as §2

[21] = tested on: Veronica persica; experiment: Post-emergence herbicidal action against VERPE; details: visual assessment about 3 weeks after treatment
In short: as §1

[22] = tested on: Cyperus esculentus; experiment: Pre-emergence herbicidal action against CYPES; details: visual score after 3 weeks vs untreated controls
In short: as §2

[23] = tested on: Matricaria inodora; experiment: Post-emergence herbicidal action against MATIN; details: visual assessment about 3 weeks after treatment
In short: as §1

[24] = tested on: Avena fatua; experiment: Post-emergence herbicidal action against AVEFA; details: 80 g/ha, visual assessment about 3 weeks after treatment
In short: as §1

[25] = tested on: Alopecurus myosuroides; experiment: Post-emergence herbicidal action against ALOMY; details: 80 g/ha
In short: as §1

[26] = tested on: Setaria viridis; experiment: Post-emergence herbicidal action against SETVI; details: 80 g/ha, visual assessment about 3 weeks after treatment
In short: as §1

[27] = tested on: Cyperus esculentus; experiment: Post-emergence herbicidal action against CYPES; details: visual assessment about 3 weeks after treatment
Description: as §3

[28] = Dosage column 320 g/ha (heading prints 3200 g/ha)

`Cc1ccccc1N(C)C(=O)c1c(Cl)ccc(C(=O)Nc2nnnn2C)c1Cl` [Example 1-399] was tested, and the “Post-emergence action against ABUTH” value ([1]; 5 g/ha) was 80%, the “Post-emergence action against ABUTH” value ([1]; 20 g/ha) was 100% and the “Post-emergence action against ABUTH” value ([1]; 80 g/ha) was 100%. The “Pre-emergence action against ECHCG” value ([2]; 80 g/ha) was 100%, the “Pre-emergence action against ECHCG” value ([2]; 320 g/ha) was 100% and the “Post-emergence action against VIOTR in %” value [3] was 100%. The “Pre-emergence action against MATIN” value ([4]; 80 g/ha) was 90%, the “Pre-emergence action against MATIN” value ([4]; 320 g/ha) was 100% and the “Pre-emergence action against POLCO” value ([5]; 320 g/ha) was 90%. For the same compound, the “Pre-emergence action against VIOTR” value ([6]; 80 g/ha) was 100%, the “Pre-emergence action against VIOTR” value ([6]; 320 g/ha) was 100% and the “Pre-emergence action against ALOMY” value ([7]; 80 g/ha) was 80%. The “Pre-emergence action against ALOMY” value ([7]; 320 g/ha) was 100%, the “Pre-emergence action against SETVI” value [8] was 100% and the “Pre-emergence action against STEME” value ([9]; 20 g/ha) was 90%. The “Pre-emergence action against STEME” value ([9]; 80 g/ha) was 90%, the “Pre-emergence action against STEME” value ([9]; 320 g/ha) was 100% and the “Pre-emergence action against AMARE” value ([10]; 20 g/ha) was 90%. The “Pre-emergence action against AMARE” value ([10]; 80 g/ha) was 100%, the “Pre-emergence action against AMARE” value ([10]; 320 g/ha) was 100% and the “Pre-emergence action against HORMU” value [11] was 90%. For the same compound, the “Post-emergence action against ECHCG in %” value ([12]; 20 g/ha) was 80%, the “Post-emergence action against ECHCG in %” value ([12]; 80 g/ha) was 100% and the “Post-emergence action against POLCO in %” value ([13]; 80 g/ha) was 100%. For the same compound, the “Post-emergence action against AMARE in %” value ([14]; 5 g/ha) was 100%, the “Post-emergence action against AMARE in %” value ([14]; 20 g/ha) was 100% and the “Post-emergence action against AMARE in %” value ([14]; 80 g/ha) was 100%. For the same compound, the “Pre-emergence action against VERPE” value [15] was 80%, the “Pre-emergence action against AVEFA” value [16] was 90% and the “Post-emergence action against PHBPU in %” value ([17]; 80 g/ha) was 90%. The “Post-emergence action against STEME in %” value ([18]; 5 g/ha) was 80%, the “Post-emergence action against STEME in %” value ([18]; 20 g/ha) was 90% and the “Post-emergence action against STEME in %” value ([18]; 80 g/ha) was 100%. The “Pre-emergence action against ABUTH” value ([19]; 80 g/ha) was 100%, the “Pre-emergence action against ABUTH” value [19, 28] was 100% and the “Pre-emergence action against PHBPU” value [20] was 90%. The “Post-emergence action against VERPE in %” value ([21]; 20 g/ha) was 80%, the “Post-emergence action against VERPE in %” value ([21]; 80 g/ha) was 90% and the “Pre-emergence action against CYPES” value ([22]; 320 g/ha) was 90%. The “Post-emergence action against MATIN in %” value ([23]; 20 g/ha) was 90% and the “Post-emergence action against MATIN in %” value ([23]; 80 g/ha) was 90%.
`CCCn1nnnc1NC(=O)c1ccc(C(F)(F)F)c(C(=O)N2CCCC2)c1Cl` [Example 3-152] was tested, and the “Post-emergence action against ABUTH” value ([1]; 5 g/ha) was 90%, the “Post-emergence action against ABUTH” value ([1]; 20 g/ha) was 100% and the “Post-emergence action against ABUTH” value ([1]; 80 g/ha) was 100%. The “Pre-emergence action against ECHCG” value ([2]; 80 g/ha) was 80%, the “Pre-emergence action against ECHCG” value ([2]; 320 g/ha) was 100% and the “Post-emergence action against VIOTR in %” value [3] was 80%. For the same compound, the “Pre-emergence action against MATIN” value ([4]; 20 g/ha) was 80%, the “Pre-emergence action against MATIN” value ([4]; 80 g/ha) was 100% and the “Pre-emergence action against MATIN” value ([4]; 320 g/ha) was 100%. For the same compound, the “Pre-emergence action against POLCO” value ([5]; 80 g/ha) was 80%, the “Pre-emergence action against POLCO” value ([5]; 320 g/ha) was 90% and the “Pre-emergence action against VIOTR” value ([6]; 80 g/ha) was 90%. The “Pre-emergence action against VIOTR” value ([6]; 320 g/ha) was 90%, the “Post-emergence action against AVEFA in %” value [24] was 100% and the “Pre-emergence action against ALOMY” value ([7]; 320 g/ha) was 80%. The “Pre-emergence action against SETVI” value [8] was 100%, the “Pre-emergence action against STEME” value ([9]; 20 g/ha) was 100% and the “Pre-emergence action against STEME” value ([9]; 80 g/ha) was 100%. The “Pre-emergence action against STEME” value ([9]; 320 g/ha) was 100%, the “Pre-emergence action against AMARE” value ([10]; 20 g/ha) was 100% and the “Pre-emergence action against AMARE” value ([10]; 80 g/ha) was 100%. For the same compound, the “Pre-emergence action against AMARE” value ([10]; 320 g/ha) was 100%, the “Post-emergence action against ALOMY” value [25] was 80% and the “Post-emergence action against SETVI in %” value [26] was 100%. For the same compound, the “Post-emergence action against ECHCG in %” value ([12]; 20 g/ha) was 80%, the “Post-emergence action against ECHCG in %” value ([12]; 80 g/ha) was 100% and the “Post-emergence action against POLCO in %” value ([13]; 20 g/ha) was 90%. The “Post-emergence action against POLCO in %” value ([13]; 80 g/ha) was 90%, the “Post-emergence action against AMARE in %” value ([14]; 5 g/ha) was 100% and the “Post-emergence action against AMARE in %” value ([14]; 20 g/ha) was 100%. For the same compound, the “Post-emergence action against AMARE in %” value ([14]; 80 g/ha) was 100%, the “Pre-emergence action against VERPE” value [15] was 100% and the “Pre-emergence action against AVEFA” value [16] was 100%. The “Post-emergence action against PHBPU in %” value ([17]; 20 g/ha) was 80%, the “Post-emergence action against PHBPU in %” value ([17]; 80 g/ha) was 100% and the “Post-emergence action against STEME in %” value ([18]; 5 g/ha) was 80%. The “Post-emergence action against STEME in %” value ([18]; 20 g/ha) was 80%, the “Post-emergence action against STEME in %” value ([18]; 80 g/ha) was 90% and the “Pre-emergence action against ABUTH” value ([19]; 20 g/ha) was 100%. The “Pre-emergence action against ABUTH” value ([19]; 80 g/ha) was 100%, the “Pre-emergence action against ABUTH” value [19, 28] was 100% and the “Pre-emergence action against PHBPU” value [20] was 100%. The “Post-emergence action against VERPE in %” value ([21]; 80 g/ha) was 80%, the “Pre-emergence action against CYPES” value ([22]; 80 g/ha) was 80% and the “Pre-emergence action against CYPES” value ([22]; 320 g/ha) was 90%. For the same compound, the “Post-emergence action against CYPES in %” value ([27]; 20 g/ha) was 80%, the “Post-emergence action against CYPES in %” value ([27]; 80 g/ha) was 80% and the “Post-emergence action against MATIN in %” value ([23]; 80 g/ha) was 90%.
